{"source": "patent US20170107229A1", "about": "“SUBSTITUTED TETRAHYDROPYRIDOTHIENOPYRIMIDINES” (BAYER PHARMA AKTIENGESELLSCHAFT, priority 2014, published 2017)", "molecular_target": "T1, human full-length MKNK1 (Homo sapiens, UniProt Q9BUB5, T385D)", "T1 construct": "GST (N); purchased Carna Biosciences 02-145; host or cells: insect cells (baculovirus expression system)", "T1 sequence (Q9BUB5 1-424 isoform Q9BUB5-2 T344D)": "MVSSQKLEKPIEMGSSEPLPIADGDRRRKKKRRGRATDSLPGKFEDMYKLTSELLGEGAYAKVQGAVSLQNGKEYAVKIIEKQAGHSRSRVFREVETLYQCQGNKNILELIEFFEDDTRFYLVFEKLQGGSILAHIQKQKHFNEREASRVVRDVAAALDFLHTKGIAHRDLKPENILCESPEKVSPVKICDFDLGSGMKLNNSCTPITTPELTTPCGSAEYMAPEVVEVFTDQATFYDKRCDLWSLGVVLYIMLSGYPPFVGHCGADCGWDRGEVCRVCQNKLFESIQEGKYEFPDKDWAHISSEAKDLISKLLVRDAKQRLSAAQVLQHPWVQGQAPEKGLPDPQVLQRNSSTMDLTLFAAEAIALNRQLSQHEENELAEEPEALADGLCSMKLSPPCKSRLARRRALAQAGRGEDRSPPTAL", "assay": "MKNK1 kinase high ATP assay (TR-FRET)", "type": "biochemical", "details": "high ATP (2 mM final), 15 min preincubation with enzyme, GST-MKNK1 (T344D)", "procedure,_shortened": "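GST-tagged human full-length MKNK1 (T344D), insect-cell expressed, preincubated 15 min at 22 °C with compound, then reacted 30 min at 22 °C with 2 mM ATP and 0.06 μM biotinylated peptide (final) in HEPES pH 7.5. Phospho-peptide detected by TR-FRET (665/620 nm ratio) after EDTA stop; normalised to no-inhibitor and no-enzyme controls.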", "data": [{"compound": "COc1cc2[nH]ncc2cc1Nc1ncnc2sc3c(c12)CCN(C(=O)N1CCOC[C@H]1C)C3", "note": "[Example 96, {4-[(6-Methoxy-1H-indazol-5-yl)amino]-5,8-dihydropyrido[4′,3′:4,5]thieno[2,3-d]pyrimidin-7(6H)-yl}[(3R)-3-methylmorpholin-4-yl]methanone]", "values": [{"measurement": "IC50", "value": 3, "unit": "nM"}]}, {"compound": "COc1cc2[nH]ncc2cc1Nc1ncnc2sc3c(c12)CCN(C(=O)N1CCOC[C@@H]1C)C3", "note": "[Example 97, {4-[(6-Methoxy-1H-indazol-5-yl)amino]-5,8-dihydropyrido[4′,3′:4,5]thieno[2,3-d]pyrimidin-7(6H)-yl}[(3S)-3-methylmorpholin-4-yl]methanone]", "values": [{"measurement": "IC50", "value": 3, "unit": "nM"}]}, {"compound": "COc1cc2[nH]ncc2cc1Nc1ncnc2sc3c(c12)CCN(Cc1ccn(C)n1)C3", "note": "[Example 98, N-(6-Methoxy-1H-indazol-5-yl)-7-[(1-methyl-1H-pyrazol-3-yl)methyl]-5,6,7,8-tetrahydropyrido[4′,3′:4,5]thieno[2,3-d]pyrimidin-4-amine]", "values": [{"measurement": "IC50", "value": 11, "unit": "nM"}]}, {"compound": "COc1cc2[nH]ncc2cc1Nc1ncnc2sc3c(c12)CCN(C(=O)N(C)CCC(F)(F)F)C3", "note": "[Example 99, 4-[(6-Methoxy-1H-indazol-5-yl)amino]-N-methyl-N-(3,3,3-trifluoropropyl)-5,8-dihydropyrido[4′,3′:4,5]thieno[2,3-d]pyrimidine-7(6H)-carboxamide]", "values": [{"measurement": "IC50", "value": 2, "unit": "nM"}]}, {"compound": "COc1cc2[nH]ncc2cc1Nc1ncnc2sc3c(c12)CCN(C(=O)NCCC(F)(F)F)C3", "note": "[Example 100, 4-[(6-Methoxy-1H-indazol-5-yl)amino]-N-(3,3,3-trifluoropropyl)-5,8-dihydropyrido[4′,3′:4,5]thieno[2,3-d]pyrimidine-7(6H)-carboxamide]", "values": [{"measurement": "IC50", "value": 1, "unit": "nM"}]}, {"compound": "COc1cc2[nH]ncc2cc1Nc1ncnc2sc3c(c12)CCN(C(=O)N1[C@@H](C)COC[C@@H]1C)C3", "note": "[Example 101, [(3S,5S)-3,5-Dimethylmorpholin-4-yl]{4-[(6-methoxy-1H-indazol-5-yl)amino]-5,8-dihydropyrido[4′,3′:4,5]thieno[2,3-d]pyrimidin-7(6H)-yl}methanone]", "values": [{"measurement": "IC50", "value": 9, "unit": "nM"}]}, {"compound": "COc1cc2[nH]ncc2cc1Nc1ncnc2sc3c(c12)CCN(C(=O)c1ccno1)C3", "note": "[Example 102, {4-[(6-Methoxy-1H-indazol-5-yl)amino]-5,8-dihydropyrido[4′,3′:4,5]thieno[2,3-d]pyrimidin-7(6H)-yl}(1,2-oxazol-5-yl)methanone]", "values": [{"measurement": "IC50", "value": 5, "unit": "nM"}]}, {"compound": "COc1cc2[nH]ncc2cc1Nc1ncnc2sc3c(c12)CCN(C(=O)c1ccn(C)n1)C3", "note": "[Example 103, {4-[(6-Methoxy-1H-indazol-5-yl)amino]-5,8-dihydropyrido[4′,3′:4,5]thieno[2,3-d]pyrimidin-7(6H)-yl}(1-methyl-1H-pyrazol-3-yl)methanone]", "values": [{"measurement": "IC50", "value": 11, "unit": "nM"}]}]}
